The test system of experiment [1] is AHAS enzyme of WT line (B7). As to the kind of experiment: AHAS enzyme activity assay, Sets 1 and 2. In kind it is biochemical, sunflower. To be noted: 100 μM. As to the method: Twelve greenhouse grown sunflower plants from each of the lines depicted in Table 21 were bulked and subjected to an AHAS enzyme activity assay via the method of Singh et al. (1988) Anal. Biochem. 171:173-179. Each activity assay was repeated twice. Due to the large number of samples, the experiment was split into two sets (Table 21).
Young, actively growing leaves, from four week old plantlets, were ground in a mortar and pestle with liquid N2 and extracted with a buffer composed of 100 mM Pyruvate, 200 mM KH2PO4, 20 mM MgCl2, 2 mM thiamine pyrophosphate and […]. Plant extracts were then spun through a 10 mL Zeba™ TM desalt spin column (Pierce #89893) as per the manufacturer's recommendation. The inhibition assay was performed as described by Singh et al. (1988) Anal. Biochem. 171:173-179. Assays were conducted in a 96-well format. Fifty μl of inhibitor was added to each well containing 50 μl of soluble protein extract to give final concentrations of 0.78, 1.56, 3.125, 6.25, 12.5, 25, 50 and 100 μM imazamox or 0.78, 1.56, 3.125, 6.25, 12.5, 25, 50 and 100 μM imazapyr. Zero herbicide controls were also included for each line. […] Absorbance was measured at 530 nm. AHAS activity, expressed as the mean of the absorbance values for each treatment, was presented as a percentage of the mean of the zero-herbicide controls.

The test system of experiment [2] is sunflower line BTI-OL-M1709. Briefly: tolerance to imidazolinones, greenhouse (Example 8). To be noted: 160 gr/ha at V4, fourteen days after treatment.
Experiment [3] concerns sunflower line BTI-OL-M1511. The experiment is described as above. To be noted: 160 gr/ha at V4, fourteen days after treatment.
The test system of experiment [4] is sunflower hybrid H2 (L3*L4), 122/122. As to the kind of experiment: field trial, imazapyr at V8 or R1 stage (Example 4). To be noted: H2 122/122.
Experiment [5] deals with hybrids carrying the A205V mutation event (A205V/A205V, A205V/WT). The experiment is described as above. To be noted: 160 g ai/ha applied at R1; 14 DAT.
The subject of experiment [6] is sunflower line BTI-OL-2201. Briefly: tolerance to imidazolinones, greenhouse (Example 8). To be noted: 160 gr/ha at V4, fourteen days after treatment.
The test system of experiment [7] is sunflower genotypes A122T/A205V (mean of H3, H4). As to the kind of experiment: imazapyr whole plant greenhouse test (Example 2). In kind it is in vivo. To be noted: for Phytotoxicity Index (0-9) 14 days after treatment / biomass accumulation 14 days after treatment, % of untreated / plant height 14 days after treatment, % of untreated: A122T/A205V Mean; for height reduction: heterozygotes A122T/A205V, of the untreated controls; for reduction in biomass weight: heterozygous A122T/A205V. As to the method: Seeds were sown in Petri dishes and, after germination, plantlets were transplanted to pots of 10 cm of diameter in a potting media consisting of equal parts of vermiculite, soil and sand. Plants were grown in a greenhouse under natural light conditions supplemented with 400 W sodium halide lamps to provide a 16 hr daylength. Day/night temperatures were 25 and 20 ° C., respectively. At the V2-V4 stage (Schneiter & Miller (1981) Crop Sci. 21:901-903) 10 plants of each genotype were randomly assigned to each treatment consisting of eight imazapyr doses (0, 40, 80, 160, 240, 320, 400 and 480 g ai/ha, corresponding to untreated, 0.5×, 1×, 2×, 3×, 4×, 5× and 6×, respectively), and a zero-time biomass determination. Experiment was arranged as a randomized block design with a full factorial (sunflower line×treatment) arrangement of treatments and 10 replications.
On the day of herbicide application ten plants of each genotype were cut at the cotyledonal node and dried at 60° C. for 48 hrs for zero-time dried weight determination.
The remaining plants were maintained for 14 days after imazapyr treatment (DAT) and their height, Phytotoxicity Index (PI) and above ground dry biomass were determined Height was determined as the distance between the cotyledonal node and the apex of each plant. Above ground biomass data from each line were converted to biomass accumulation after application by subtracting the appropriate average zero- time biomass from each sample. Dry biomass data were converted to percentages of the untreated control plants within each line to allow direct comparisons between groups.

Experiment [8] has as its system sunflower line OB712 (high oleic). As to the kind of experiment: tolerance to imidazolinones, greenhouse (Example 8).
The subject of experiment [9] is control line HA425 (A205V). As to the kind of experiment: imazapyr challenge of segregating population (Example 1). Format: in vivo, sunflower. To be noted: 320 g a.i. ha-1. As to the method: To determine the phenotypic interactions of the resistance gene A122T and the Imr1 gene (A205V) already described in IMI-R sunflowers (HA425), F1, F2 and BC1F1 populations from the cross GM40 (A122T)/HA425 (A205V) were evaluated at two herbicide applications rates (80 and 320 g. a. i. Ha^−1 of imazapyr). […] When F2 and BC1F1 populations were scored at the higher herbicide rate (320 g. a. i. Ha-1), which discriminates both parents, segregation for susceptibility was observed. Only two phenotypic classes could be detected, a resistant class with plants without any injury or slight symptoms and a susceptible phenotype that was killed like the control line HA425.

Experiment [10] has as its system lines carrying at least one allele A122T (A122T/A122T, A122T/A205V, A122/WT). Briefly: field trial, imazapyr at V8 or R1 stage (Example 4). To be noted: 160 g ai/ha applied at R1; 14 DAT.

SMILES strings stand for the structures. Marks after values point to notes of the source that are not given here.

Turning to `COCc1cnc(C2=NC(C)(C(C)C)C(=O)N2)c(C(=O)O)c1` (stereo not drawn) [imazamox], the “AHAS activity, % of untreated control” value in [1] (Set 1 (FIG. 13)) came to 17%; in experiment [1] (Set 2 (FIG. 14)), 11%.

Take `CC(C)C1(C)N=C(c2ncccc2C(=O)O)NC1=O` (stereo not drawn) [imazapyr]: the “Mean Phytotoxicity Index (0-9)” value in [2] turned out to be 0.2; in experiment [3], 0.5; in experiment [6] it was 0.2; in [8] (160 gr/ha at V4, fourteen days after treatment) it was 9. Further, the “Mean Phytotoxicity Index (0-50)” value amounted to 2.3 in [4] (160 g ai/ha applied at R1, 14 DAT); 1.7 in experiment [4] (160 g ai/ha applied at R1, 21 DAT); 5 in [4] (160 g ai/ha applied at V8, 14 DAT); 1 in [4] (160 g ai/ha applied at V8, 21 DAT). In addition, the “PI (0-50), group with chlorosis, stunting and deformation” value in experiment [5] is listed as “greater than 35”. The “Phytotoxicity Index (0-9) 14 days after treatment” value in experiment [7] (dose 0.5 (0.5x, 40 g ai/ha)) amounted to 0.5; in experiment [7] (dose 1 (1x, 80 g ai/ha)) it was 0.5; in experiment [7] (dose 2 (2x, 160 g ai/ha)), 0.5; in [7] (dose 3 (3x, 240 g ai/ha)), 0.5; in experiment [7] (dose 4 (4x, 320 g ai/ha)), 0.5; in [7] (dose 5 (5x, 400 g ai/ha)), 0.6. For the same compound, the “Phytotoxicity Index (0-9) 14 days after treatment” value in experiment [7] (dose 6 (6x, 480 g ai/ha)) was found to be 1. Besides, the “biomass accumulation 14 days after treatment, % of untreated” value in [7] (dose 0.5 (0.5x, 40 g ai/ha)) is 99.6%; in [7] (dose 1 (1x, 80 g ai/ha)), 98.9%; in experiment [7] (dose 2 (2x, 160 g ai/ha)), 93.2** %; in [7] (dose 3 (3x, 240 g ai/ha)), 89.5** %; in [7] (dose 4 (4x, 320 g ai/ha)), 86.4** %; in experiment [7] (dose 5 (5x, 400 g ai/ha)) it was 75.4** %. Further, in [7] (dose 6 (6x, 480 g ai/ha)), the “biomass accumulation 14 days after treatment, % of untreated” value is given as 67.5** %. Further, the “plant height 14 days after treatment, % of untreated” value is reported as 99.4% in experiment [7] (dose 0.5 (0.5x, 40 g ai/ha)); 98.3% in [7] (dose 1 (1x, 80 g ai/ha)); 98.3% in [7] (dose 2 (2x, 160 g ai/ha)); 96.9% in experiment [7] (dose 3 (3x, 240 g ai/ha)); 93.5** % in experiment [7] (dose 4 (4x, 320 g ai/ha)); 76.3** % in experiment [7] (dose 5 (5x, 400 g ai/ha)). In [7] (dose 6 (6x, 480 g ai/ha)), the “plant height 14 days after treatment, % of untreated” value is reported as 61.8** %. Besides, the figures for the height reduction in [7] (0.5x) and in experiment [7] (6x) were 0.6% and 38.2%, respectively. Further, the “reduction in biomass weight” value in experiment [7] (0.5x) is reported as 0.3%; in experiment [7] (6x), 33%. The “outcome of the herbicide treatment” value in [8] (160 gr/ha at V4) is on record as “killed”. The “outcome of herbicide application” value in experiment [9] was “killed”. In experiment [10], the “PI (0-50), group with chlorosis symptoms only” value was “less than 11.7”.

For the origin of these results see US20150148234A1, “HERBICIDE-RESISTANT SUNFLOWER PLANTS WITH MULTIPLE HERBICIDE RESISTANT ALLELES OF AHASL1 AND METHODS OF USE” (NIDERA S.A., priority 2013, published 2015).
